Assay results taken from patent US11661413B2, “Pyrazole compounds or salts thereof, preparation method therefor, herbicidal composition and use thereof” (priority 2015, dated 2023).

Columns and labels:
Flixweed = assay: weed control effect in post emergence stage, greenhouse pot spray; type: in vivo; settings: 16 g/mu, sprayed at 2-3 leaf stage, after 3 weeks
Protocol: (§1) The activity level standard of harmful plant damage (i.e. growth inhibition rate) is as follows: The above described growth control rate is fresh weight control rate. Monocotyledonous and dicotyledonous weed seeds and main crop seeds (i.e. wheat, corn, rice, soybean, cotton, oilseed, millet and Sorghum) were put into a plastic pot loaded with soil. Then covered with 0.5-2 cm soil, the seeds were allowed to grow in good greenhouse environment. The test plants were treated at 2-3 leaf stage 2-3 weeks after sowing. […] The solution was sprayed to the plants with a sprayer. Then the plants were cultured for 3 weeks in the greenhouse.

Barnyard grass = assay: as above; type: in vivo; settings: sprayed at 2-3 leaf stage, after 3 weeks
Protocol: as §1

| Compound | weed control effect (activity level), Flixweed (Flixweed) | weed control effect (activity level), Barnyard grass (Barnyard grass; 1 g/mu) | weed control effect (activity level), Barnyard grass (Barnyard grass; 2 g/mu) | weed control effect (activity level), Barnyard grass (Barnyard grass; 4 g/mu) | weed control effect (activity level), Barnyard grass (Barnyard grass; 8 g/mu) | weed control effect (activity level), Barnyard grass (Barnyard grass; 16 g/mu) |
| --- | --- | --- | --- | --- | --- | --- |
| CCc1nn(CC)c(O)c1C(=O)c1ccc(S(C)(=O)=O)c(Cn2cc(C)cn2)c1Cl [Compound 25] | 10 | 2 (above 20% growth inhibition rate) | 3 (above 30% growth inhibition rate) | 4 (above 30% growth inhibition rate) | 4 (above 30% growth inhibition rate) | 5 (above 50% growth inhibition rate) |
| Cc1nn(C)c(O)c1C(=O)c1ccc(S(C)(=O)=O)c(Cn2nc(C(F)(F)F)cc2C(F)(F)F)c1Cl [Compound 41] | 10 | 4 (above 30% growth inhibition rate) | 5 (above 50% growth inhibition rate) | 6 (above 60% growth inhibition rate) | 7 (above 70% growth inhibition rate) | 7 (above 70% growth inhibition rate) |
| Cc1cnn(Cc2c(S(C)(=O)=O)ccc(C(=O)c3c(C4CC4)nn(C)c3O)c2Cl)c1 [Compound 12] | 10 | 2 (above 20% growth inhibition rate) | 4 (above 30% growth inhibition rate) | 6 (above 60% growth inhibition rate) | 7 (above 70% growth inhibition rate) | 8 (above 80% growth inhibition rate) |
| CCn1nc(C)c(C(=O)c2ccc(S(C)(=O)=O)c(Cn3nc(C)cc3C)c2Cl)c1O [Compound 17] | 10 | 2 (above 20% growth inhibition rate) | 2 (above 20% growth inhibition rate) | 2 (above 20% growth inhibition rate) | 4 (above 30% growth inhibition rate) | 5 (above 50% growth inhibition rate) |
| Cc1ccn(Cc2c(S(C)(=O)=O)ccc(C(=O)c3cnn(C)c3O)c2Cl)n1 [Compound 8] | 10 | 2 (above 20% growth inhibition rate) | 2 (above 20% growth inhibition rate) | 4 (above 30% growth inhibition rate) | 7 (above 70% growth inhibition rate) | 8 (above 80% growth inhibition rate) |
| Cc1cc(C)n(Cc2c(S(C)(=O)=O)ccc(C(=O)c3cnn(C)c3O)c2Cl)n1 [Compound 9] | 10 | 2 (above 20% growth inhibition rate) | 2 (above 20% growth inhibition rate) | 3 (above 30% growth inhibition rate) | 5 (above 50% growth inhibition rate) | 5 (above 50% growth inhibition rate) |
